# According to patent US4012576A, “Antibiotic complex Bu 2183” (priority 1975, dated 1977):
# Entries after “also recorded” stand apart in the source; their conditions may differ. Where two headings read alike, the source gives them in different places.
# How the values were obtained:
# [1] = tested on: Gram-positive and Gram-negative bacteria; assay: In vitro antibacterial activity (general); type: cell-based
# Experimental: (§1) The minimum inhibitory concentrations (MIC) of Bu-2183 A and B were determined against a wide variety of bacteria by the two-fold agar dilution method on Nutrient Agar plates. The inocula-replicating device of Steers et al. was used. Inoculum size was adjusted to be 10^4 dilution of overnight culture of the test organisms in Heart Infusion Broth (Difco). The results are shown in Table 6 along with those of kanamycin which was comparatively tested as a reference antibiotic.
# [2] = Solubility; type: physicochemical; details: base
# [3] = Titration in water; type: physicochemical
# [4] = tested on: E. coli A20107; assay: MIC, two-fold agar dilution on Nutrient Agar; type: cell-based; details: Escherichia coli
# Experimental: as §1
# [5] = tested on: E. coli A20732; assay: MIC, two-fold agar dilution on Nutrient Agar; type: cell-based; details: Escherichia coli, A20732
# Experimental: as §1
# [6] = tested on: E. coli A20895; assay: MIC, two-fold agar dilution on Nutrient Agar; type: cell-based; details: Escherichia coli
# Experimental: as §1
# [7] = tested on: E. coli JR 35/C600; assay: MIC, two-fold agar dilution on Nutrient Agar; type: cell-based; details: Escherichia coli, JR35/C600
# Experimental: as §1
# [8] = tested on: E. coli JR 66/W677; assay: MIC, two-fold agar dilution on Nutrient Agar; type: cell-based; details: Escherichia coli
# Experimental: as §1
# [9] = tested on: E. coli ML 1630; assay: MIC, two-fold agar dilution on Nutrient Agar; type: cell-based; details: Escherichia coli
# Experimental: as §1
# [10] = tested on: E. coli NIHJ; assay: MIC, two-fold agar dilution on Nutrient Agar; type: cell-based; details: Escherichia coli
# Experimental: as §1
# [11] = tested on: E. coli NR 79/W677; assay: MIC, two-fold agar dilution on Nutrient Agar; type: cell-based; details: Escherichia coli
# Experimental: as §1
# [12] = tested on: E. coli PO 1495; assay: MIC, two-fold agar dilution on Nutrient Agar; type: cell-based; details: Escherichia coli, PO1495, read-out: MIC
# Experimental: as §1
# [13] = tested on: E. coli R 5; assay: MIC, two-fold agar dilution on Nutrient Agar; type: cell-based; details: Escherichia coli
# Experimental: as §1
# [14] = tested on: Ent. cloacae A20364; assay: MIC, two-fold agar dilution on Nutrient Agar; type: cell-based; details: Enterobacter cloacae, A20364
# Experimental: as §1
# [15] = tested on: Ent. cloacae A21006; assay: MIC, two-fold agar dilution on Nutrient Agar; type: cell-based; details: Enterobacter cloacae, A21006
# Experimental: as §1
# [16] = tested on: K. pneumoniae D11; assay: MIC, two-fold agar dilution on Nutrient Agar; type: cell-based; details: Klebsiella pneumoniae
# Experimental: as §1
# [17] = tested on: K. pneumoniae Type 22-3038; assay: MIC, two-fold agar dilution on Nutrient Agar; type: cell-based; details: Klebsiella pneumoniae, TYPE223038
# Experimental: as §1
# [18] = tested on: Pr. mirabilis A9554; assay: MIC, two-fold agar dilution on Nutrient Agar; type: cell-based; details: Proteus mirabilis
# Experimental: as §1
# [19] = tested on: Pr. morganii A20031; assay: MIC, two-fold agar dilution on Nutrient Agar; type: cell-based; details: Morganella morganii, A20031
# Experimental: as §1
# [20] = tested on: Pr. vulgaris A9436; assay: MIC, two-fold agar dilution on Nutrient Agar; type: cell-based; details: Proteus vulgaris
# Experimental: as §1
# [21] = tested on: Prov. stuartii A20894; assay: MIC, two-fold agar dilution on Nutrient Agar; type: cell-based; details: Providencia stuartii, A20894
# Experimental: as §1
# [22] = tested on: Ps. aeruginosa A20601; assay: MIC, two-fold agar dilution on Nutrient Agar; type: cell-based; details: Pseudomonas aeruginosa
# Experimental: as §1
# [23] = tested on: Ps. aeruginosa A20653; assay: MIC, two-fold agar dilution on Nutrient Agar; type: cell-based; details: Pseudomonas aeruginosa
# Experimental: as §1
# [24] = tested on: Ps. aeruginosa A20896; assay: MIC, two-fold agar dilution on Nutrient Agar; type: cell-based; details: Pseudomonas aeruginosa
# Experimental: as §1
# [25] = tested on: Ps. aeruginosa A9930; assay: MIC, two-fold agar dilution on Nutrient Agar; type: cell-based; details: Pseudomonas aeruginosa, A9930
# Experimental: as §1
# [26] = tested on: Ps. aeruginosa GN 315; assay: MIC, two-fold agar dilution on Nutrient Agar; type: cell-based; details: Pseudomonas aeruginosa, GN315
# Experimental: as §1
# [27] = tested on: Ps. aeruginosa No. 130; assay: MIC, two-fold agar dilution on Nutrient Agar; type: cell-based; details: Pseudomonas aeruginosa, NO.130
# Experimental: as §1
# [28] = tested on: Pseudomonas sp. A20621; assay: MIC, two-fold agar dilution on Nutrient Agar; type: cell-based; details: Pseudomonas, SP.A20621
# Experimental: as §1
# [29] = tested on: S. aureus A20239; assay: MIC, two-fold agar dilution on Nutrient Agar; type: cell-based; details: Staphylococcus aureus
# Experimental: as §1
# [30] = tested on: S. aureus D133; assay: MIC, two-fold agar dilution on Nutrient Agar; type: cell-based; details: Staphylococcus aureus
# Experimental: as §1
# [31] = tested on: S. aureus D137; assay: MIC, two-fold agar dilution on Nutrient Agar; type: cell-based; details: Staphylococcus aureus
# Experimental: as §1
# [32] = tested on: S. aureus D193; assay: MIC, two-fold agar dilution on Nutrient Agar; type: cell-based; details: Staphylococcus aureus, D193
# Experimental: as §1
# [33] = tested on: S. aureus Smith; assay: MIC, two-fold agar dilution on Nutrient Agar; type: cell-based; details: Staphylococcus aureus
# Experimental: as §1
# [34] = tested on: Ser. marcescens A20019; assay: MIC, two-fold agar dilution on Nutrient Agar; type: cell-based; details: Serratia marcescens, A20019
# Experimental: as §1
# [35] = tested on: Ser. marcescens A21247; assay: MIC, two-fold agar dilution on Nutrient Agar; type: cell-based; details: Serratia marcescens
# Experimental: as §1
smiles,measurement,setting,value
NC[C@H](O)[C@@H](O[C@H]1O[C@H](CO)[C@@H](N)[C@H](O)[C@H]1O)[C@H](N)[C@H](O)CO [Bu-2183 D],bio-activity,[1],bio-inactive
same,bio-activity,[1]; listed as D,bio-inactive; also recorded: bioinactive
same,solubility in methanol and ethanol,[2],slightly soluble
same,"solubility in n-butanol, acetone and other common organic solvents",[2],practically insoluble
same,solubility in water,[2],soluble
same,pKa,[3]; read-out: pKa' (first value),6.95
same,pKa,[3]; read-out: pKa' (second value),9.68
"NC[C@H]1O[C@H](O[C@H]2[C@H](O)[C@@H](O[C@H]3O[C@H](CO)[C@@H](O)[C@H](N)[C@H]3O)[C@H](N)C[C@@H]2N)[C@H](O)[C@@H](O)[C@@H]1O [Kanamycin A, reference compound]",MIC,[4]; A20107,25 µg/mL
same,MIC,[5],12.5 µg/mL
same,MIC,[6]; A20895,0.8 µg/mL
same,MIC,[7],12.5 µg/mL
same,MIC,"[8]; JR66/W677, Table 6, Ec-53",25 µg/mL
same,MIC,[9]; ML1630,100 µg/mL
same,MIC,[10],0.8 µg/mL
same,MIC,"[11]; NR79/W677, Table 6, Ec-9",25 µg/mL
same,MIC,"[12]; Table 6, Ec-2",0.4 µg/mL
same,MIC,"[13]; R5, Table 6, Ec-55",6.3 µg/mL
same,MIC,[14],100 µg/mL
same,MIC,[15],50 µg/mL
same,MIC,[16]; D11,0.2 µg/mL
same,MIC,[17],100 µg/mL
same,MIC,[18]; A9554,0.4 µg/mL
same,MIC,[19],0.8 µg/mL
same,MIC,[20]; A9436,0.2 µg/mL
same,MIC,[21],0.8 µg/mL
same,MIC,[22]; A20601,12.5 µg/mL
same,MIC,[23]; A20653,> 100 µg/mL
same,MIC,[24]; A20896,> 100 µg/mL
same,MIC,[25],6.3 µg/mL
same,MIC,[26],100 µg/mL
same,MIC,[27],25 µg/mL
same,MIC,[28],12.5 µg/mL
same,MIC,[29]; A20239,25 µg/mL
same,MIC,[30]; D133,0.8 µg/mL
same,MIC,[31]; D137,1.6 µg/mL
same,MIC,[32],0.4 µg/mL
same,MIC,[33],0.2 µg/mL
same,MIC,[34],0.8 µg/mL
same,MIC,[35]; A21247,> 100 µg/mL
CCCC(=O)NC1C(CO)OC(OC(C(O)CN)C(N)C(O)CO)C(O)C1O (stereo not drawn) [Bu-2183 A2],MIC,"[4]; A20107, Table 7, Ec-49, read-out: MIC",50 µg/mL
same,MIC,"[5]; Table 7, Ec-72, read-out: MIC",25 µg/mL
same,MIC,"[6]; A20895, Table 7, Ec-62, read-out: MIC",50 µg/mL
same,MIC,[7],6.3 µg/mL
same,MIC,"[8]; JR66/W677, Table 7, Ec-53",25 µg/mL
same,MIC,"[9]; ML1630, Table 7, Ec-5, read-out: MIC",50 µg/mL
same,MIC,"[10]; Table 7, Ec-1, read-out: MIC",100 µg/mL
same,MIC,"[11]; NR79/W677, Table 7, Ec-9",25 µg/mL
same,MIC,"[12]; Table 7, Ec-2",> 100 µg/mL
same,MIC,"[13]; R5, Table 7, Ec-55",25 µg/mL
same,MIC,"[14]; Table 7, El-2, read-out: MIC",100 µg/mL
same,MIC,"[15]; Table 7, El-12, read-out: MIC",100 µg/mL
same,MIC,"[16]; D11, Table 7, Kp-1, read-out: MIC",12.5 µg/mL
same,MIC,"[17]; Table 7, Kp-8 (printed Type 22-3028), read-out: MIC",100 µg/mL
same,MIC,"[18]; A9554, Table 7, Pm-1, read-out: MIC",50 µg/mL
same,MIC,"[19]; Table 7, Pg-2, read-out: MIC",50 µg/mL
same,MIC,"[20]; A9436, Table 7, Pv-1, read-out: MIC",100 µg/mL
same,MIC,"[21]; Table 7, Ps-2, read-out: MIC",> 100 µg/mL
same,MIC,"[22]; A20601, Table 7, Pa-21, read-out: MIC",> 100 µg/mL
same,MIC,"[23]; A20653, Table 7, Pa-12, read-out: MIC",> 100 µg/mL
same,MIC,"[24]; A20896, Table 7, Pa-24, read-out: MIC",> 100 µg/mL
same,MIC,"[25]; Table 7, Pa-3, read-out: MIC",50 µg/mL
same,MIC,"[26]; Table 7, Pa-27, read-out: MIC",100 µg/mL
same,MIC,"[27]; Table 7, Pa-16, read-out: MIC",100 µg/mL
same,MIC,"[28]; Table 7, Px-10, read-out: MIC",> 100 µg/mL
same,MIC,"[29]; A20239, Table 7, Sa-10, read-out: MIC",100 µg/mL
same,MIC,"[30]; D133, Table 7, Sa-4, read-out: MIC",100 µg/mL
same,MIC,"[31]; D137, Table 7, Sa-9, read-out: MIC",100 µg/mL
same,MIC,"[32]; Table 7, Sa-3, read-out: MIC",50 µg/mL
same,MIC,"[33]; Table 7, Sa-2, read-out: MIC",25 µg/mL
same,MIC,"[34]; Table 7, Sm-1, read-out: MIC",> 100 µg/mL
same,MIC,"[35]; A21247, Table 7, Sm-16, read-out: MIC",> 100 µg/mL
same,bio-activity,[1],bio-active
same,activity of Bu-2183 A2 relative to Bu-2183 A and B,[1]; in vitro,more active than Bu-2183 B but less active than Bu-2183 A
same,antibacterial spectrum,[1]; in vitro,broad spectrum of antibacterial activity
same,solubility in methanol and ethanol,[2],slightly soluble
same,"solubility in n-butanol, acetone and other common organic solvents",[2],practically insoluble
same,solubility in water,[2],soluble
NC[C@H](O)[C@@H](O[C@H]1O[C@H](CO)[C@@H](O)[C@H](O)[C@H]1O)[C@H](N)[C@H](O)CO [Bu-2183 C],bio-activity,[1],bio-inactive; also recorded: bioinactive
